Measured values published in PubChem BioAssay (NCI).
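Assay format: 96-well plates, 48-hour exposure. GI50 marks 50% less growth. TGI: concentration producing complete growth inhibition.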

Legend:
Experiment in all cases: NCI-60 cell line screen, 48 h
EKVX NSCLC = system: EKVX NSCLC
M14 melanoma = system: M14 melanoma
KM12 colon = system: KM12 colon
NCI-H226 lung = system: NCI-H226 lung
RPMI-8226 leukemia = system: RPMI-8226 leukemia
MDA-MB-231 breast = system: MDA-MB-231 breast
DU-145 prostate = system: DU-145 prostate
NCI-H460 lung = system: NCI-H460 lung
OVCAR-5 ovarian = system: OVCAR-5 ovarian
HL-60(TB) leukemia = system: HL-60(TB) leukemia
HOP-62 NSCLC = system: HOP-62 NSCLC
SK-MEL-28 melanoma = system: SK-MEL-28 melanoma
SNB-19 CNS = system: SNB-19 CNS
CCRF-CEM leukemia = system: CCRF-CEM leukemia
HS 578T breast = system: HS 578T breast
BT-549 breast = system: BT-549 breast
UACC-62 melanoma = system: UACC-62 melanoma
SR leukemia = system: SR leukemia
A549 NSCLC = system: A549 NSCLC
NCI-H23 lung = system: NCI-H23 lung
HCT-116 colon = system: HCT-116 colon
MALME-3M melanoma = system: MALME-3M melanoma
SF-268 CNS = system: SF-268 CNS
NCI-H522 lung = system: NCI-H522 lung
CAKI-1 renal = system: CAKI-1 renal
SK-OV-3 ovarian = system: SK-OV-3 ovarian
HT29 colon = system: HT29 colon
OVCAR-3 ovarian = system: OVCAR-3 ovarian
MCF7 breast = system: MCF7 breast
NCI/ADR-RES ovarian = system: NCI/ADR-RES ovarian
MDA-MB-435 = system: MDA-MB-435
K-562 leukemia = system: K-562 leukemia
SN12C renal = system: SN12C renal
SK-MEL-5 melanoma = system: SK-MEL-5 melanoma
UO-31 renal = system: UO-31 renal
TK-10 renal = system: TK-10 renal
OVCAR-4 ovarian = system: OVCAR-4 ovarian
IGROV1 ovarian = system: IGROV1 ovarian
PC-3 prostate = system: PC-3 prostate
LOX IMVI melanoma = system: LOX IMVI melanoma
COLO 205 colon = system: COLO 205 colon
MOLT-4 leukemia = system: MOLT-4 leukemia
786-0 renal = system: 786-0 renal
HCT-15 colon = system: HCT-15 colon
SF-295 CNS = system: SF-295 CNS
RXF 393 renal = system: RXF 393 renal
T-47D breast = system: T-47D breast
OVCAR-8 ovarian = system: OVCAR-8 ovarian
U251 CNS = system: U251 CNS
ACHN renal = system: ACHN renal
SNB-75 CNS = system: SNB-75 CNS
UACC-257 melanoma = system: UACC-257 melanoma
HCC-2998 colon = system: HCC-2998 colon
A498 renal = system: A498 renal
SW-620 colon = system: SW-620 colon
SK-MEL-2 melanoma = system: SK-MEL-2 melanoma
HOP-92 NSCLC = system: HOP-92 NSCLC
SF-539 CNS = system: SF-539 CNS

O=c1[nH]c(=O)n(C2CC(O)C(CO)O2)cc1OC/C=C/Cc1ccccc1 (stereo unspecified)
TGI (EKVX NSCLC): > 100 µM
TGI (M14 melanoma): > 100 µM
TGI (KM12 colon): > 100 µM
TGI (NCI-H226 lung): > 100 µM
TGI (RPMI-8226 leukemia): > 100 µM
TGI (MDA-MB-231 breast): > 100 µM
TGI (DU-145 prostate): > 100 µM
TGI (NCI-H460 lung): > 100 µM
TGI (OVCAR-5 ovarian): > 100 µM
TGI (HL-60(TB) leukemia): > 100 µM
TGI (HOP-62 NSCLC): > 100 µM
TGI (SK-MEL-28 melanoma): > 100 µM
TGI (SNB-19 CNS): > 100 µM
TGI (CCRF-CEM leukemia): > 100 µM
TGI (HS 578T breast): > 100 µM
TGI (BT-549 breast): > 100 µM
TGI (UACC-62 melanoma): > 100 µM
TGI (SR leukemia): > 100 µM
TGI (A549 NSCLC): > 100 µM
TGI (NCI-H23 lung): > 100 µM
TGI (HCT-116 colon): > 100 µM
TGI (MALME-3M melanoma): > 100 µM
TGI (SF-268 CNS): > 100 µM
TGI (NCI-H522 lung): > 100 µM
TGI (CAKI-1 renal): > 100 µM
TGI (SK-OV-3 ovarian): > 100 µM
TGI (HT29 colon): > 100 µM
TGI (OVCAR-3 ovarian): > 100 µM
TGI (MCF7 breast): > 100 µM
TGI (NCI/ADR-RES ovarian): > 100 µM
TGI (MDA-MB-435): > 100 µM
TGI (K-562 leukemia): > 100 µM
TGI (SN12C renal): > 100 µM
TGI (SK-MEL-5 melanoma): > 100 µM
TGI (UO-31 renal): > 100 µM
TGI (TK-10 renal): > 100 µM
TGI (OVCAR-4 ovarian): > 100 µM
TGI (IGROV1 ovarian): > 100 µM
TGI (PC-3 prostate): > 100 µM
TGI (LOX IMVI melanoma): > 100 µM
TGI (COLO 205 colon): > 100 µM
TGI (MOLT-4 leukemia): > 100 µM
TGI (786-0 renal): > 100 µM
TGI (HCT-15 colon): > 100 µM
TGI (SF-295 CNS): > 100 µM
TGI (RXF 393 renal): > 100 µM
TGI (T-47D breast): > 100 µM
TGI (OVCAR-8 ovarian): > 100 µM
TGI (U251 CNS): > 100 µM
TGI (ACHN renal): > 100 µM
TGI (SNB-75 CNS): > 100 µM
TGI (UACC-257 melanoma): > 100 µM

COc1ccc(C(=O)N2c3ccccc3Sc3ccccc32)c(F)c1
GI50 (EKVX NSCLC): 2.72 µM
TGI (EKVX NSCLC): > 100 µM
GI50 (M14 melanoma): 0.371 µM
TGI (M14 melanoma): > 100 µM
GI50 (KM12 colon): 0.489 µM
TGI (KM12 colon): > 100 µM
GI50 (NCI-H226 lung): 2.35 µM
TGI (NCI-H226 lung): > 100 µM
GI50 (RPMI-8226 leukemia): 0.922 µM
TGI (RPMI-8226 leukemia): 63 µM
GI50 (MDA-MB-231 breast): 3.52 µM
TGI (MDA-MB-231 breast): > 100 µM
GI50 (DU-145 prostate): 1.4 µM
TGI (DU-145 prostate): > 100 µM
GI50 (HCC-2998 colon): 2.38 µM
TGI (HCC-2998 colon): > 100 µM
GI50 (A498 renal): 0.33 µM
TGI (A498 renal): 8.68 µM
GI50 (NCI-H460 lung): 0.485 µM
TGI (NCI-H460 lung): > 100 µM
GI50 (OVCAR-5 ovarian): 3.66 µM
TGI (OVCAR-5 ovarian): > 100 µM
GI50 (HL-60(TB) leukemia): 0.325 µM
TGI (HL-60(TB) leukemia): > 100 µM
GI50 (HOP-62 NSCLC): 0.968 µM
TGI (HOP-62 NSCLC): > 100 µM
GI50 (SK-MEL-28 melanoma): 1.64 µM
TGI (SK-MEL-28 melanoma): > 100 µM
GI50 (SNB-19 CNS): 0.571 µM
TGI (SNB-19 CNS): > 100 µM
GI50 (CCRF-CEM leukemia): 0.522 µM
TGI (CCRF-CEM leukemia): > 100 µM
GI50 (HS 578T breast): 0.377 µM
TGI (HS 578T breast): > 100 µM
GI50 (BT-549 breast): 0.676 µM
TGI (BT-549 breast): > 100 µM
GI50 (UACC-62 melanoma): 0.382 µM
TGI (UACC-62 melanoma): > 100 µM
GI50 (SR leukemia): 0.38 µM
TGI (SR leukemia): > 100 µM
GI50 (A549 NSCLC): 1.19 µM
TGI (A549 NSCLC): > 100 µM
GI50 (NCI-H23 lung): 3.42 µM
TGI (NCI-H23 lung): > 100 µM
GI50 (HCT-116 colon): 0.393 µM
TGI (HCT-116 colon): > 100 µM
GI50 (MALME-3M melanoma): 16.2 µM
TGI (MALME-3M melanoma): > 100 µM
GI50 (SF-268 CNS): 10.7 µM
TGI (SF-268 CNS): > 100 µM
GI50 (NCI-H522 lung): 0.403 µM
TGI (NCI-H522 lung): > 100 µM
GI50 (CAKI-1 renal): 0.584 µM
TGI (CAKI-1 renal): > 100 µM
GI50 (SW-620 colon): 0.458 µM
TGI (SW-620 colon): > 100 µM
GI50 (SK-OV-3 ovarian): 4.13 µM
TGI (SK-OV-3 ovarian): > 100 µM
GI50 (HT29 colon): 0.38 µM
TGI (HT29 colon): 43.3 µM
GI50 (OVCAR-3 ovarian): 0.418 µM
TGI (OVCAR-3 ovarian): > 100 µM
GI50 (MCF7 breast): 0.405 µM
TGI (MCF7 breast): > 100 µM
GI50 (NCI/ADR-RES ovarian): 0.517 µM
TGI (NCI/ADR-RES ovarian): > 100 µM
GI50 (K-562 leukemia): 0.442 µM
TGI (K-562 leukemia): > 100 µM
GI50 (SN12C renal): 1.94 µM
TGI (SN12C renal): > 100 µM
GI50 (SK-MEL-5 melanoma): 0.759 µM
TGI (SK-MEL-5 melanoma): 22.5 µM
GI50 (UO-31 renal): 3.78 µM
TGI (UO-31 renal): > 100 µM
GI50 (TK-10 renal): 10.4 µM
TGI (TK-10 renal): > 100 µM
GI50 (OVCAR-4 ovarian): 2.01 µM
TGI (OVCAR-4 ovarian): > 100 µM
GI50 (IGROV1 ovarian): 0.808 µM
TGI (IGROV1 ovarian): > 100 µM
GI50 (SK-MEL-2 melanoma): 0.531 µM
TGI (SK-MEL-2 melanoma): > 100 µM
GI50 (PC-3 prostate): 0.407 µM
TGI (PC-3 prostate): > 100 µM
GI50 (LOX IMVI melanoma): 0.726 µM
TGI (LOX IMVI melanoma): > 100 µM
GI50 (HOP-92 NSCLC): 0.238 µM
TGI (HOP-92 NSCLC): 59.7 µM
GI50 (SF-539 CNS): 0.409 µM
TGI (SF-539 CNS): 3.36 µM
GI50 (COLO 205 colon): 0.445 µM
TGI (COLO 205 colon): 26.8 µM
GI50 (MOLT-4 leukemia): 0.715 µM
TGI (MOLT-4 leukemia): > 100 µM
GI50 (786-0 renal): 0.675 µM
TGI (786-0 renal): > 100 µM
GI50 (HCT-15 colon): 0.419 µM
TGI (HCT-15 colon): > 100 µM
GI50 (SF-295 CNS): 0.395 µM
TGI (SF-295 CNS): > 100 µM
GI50 (RXF 393 renal): 0.764 µM
TGI (RXF 393 renal): > 100 µM
GI50 (T-47D breast): 0.639 µM
TGI (T-47D breast): > 100 µM
GI50 (OVCAR-8 ovarian): 2.2 µM
TGI (OVCAR-8 ovarian): > 100 µM
GI50 (U251 CNS): 0.615 µM
TGI (U251 CNS): > 100 µM
GI50 (ACHN renal): 0.831 µM
TGI (ACHN renal): > 100 µM
GI50 (SNB-75 CNS): 0.288 µM
TGI (SNB-75 CNS): 34 µM
GI50 (UACC-257 melanoma): > 100 µM
TGI (UACC-257 melanoma): > 100 µM
